Key:
[1] = biological target: T1, Type-1 angiotensin II receptor (Homo sapiens, UniProt P30556)
T1 sequence (P30556 whole entry): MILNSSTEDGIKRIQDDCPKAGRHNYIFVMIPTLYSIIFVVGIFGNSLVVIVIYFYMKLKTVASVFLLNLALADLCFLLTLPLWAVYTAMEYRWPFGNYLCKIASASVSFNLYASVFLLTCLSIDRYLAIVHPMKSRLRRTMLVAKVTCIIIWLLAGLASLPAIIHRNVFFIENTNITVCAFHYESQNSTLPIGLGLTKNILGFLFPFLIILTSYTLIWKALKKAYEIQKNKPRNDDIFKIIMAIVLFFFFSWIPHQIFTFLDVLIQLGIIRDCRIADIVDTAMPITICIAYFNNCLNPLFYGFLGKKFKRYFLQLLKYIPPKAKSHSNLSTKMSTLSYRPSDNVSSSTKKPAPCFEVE

[2] = biological target: Voltage-dependent L-type calcium channel subunit alpha-1C (Rattus norvegicus, UniProt P22002); assay type: functional
[3] = biological target: Cannabinoid receptor 1 (Homo sapiens, UniProt P21554)
[4] = biological target: T2, 5-hydroxytryptamine receptor 2C (Homo sapiens, UniProt P28335)
T2 sequence (P28335 whole entry): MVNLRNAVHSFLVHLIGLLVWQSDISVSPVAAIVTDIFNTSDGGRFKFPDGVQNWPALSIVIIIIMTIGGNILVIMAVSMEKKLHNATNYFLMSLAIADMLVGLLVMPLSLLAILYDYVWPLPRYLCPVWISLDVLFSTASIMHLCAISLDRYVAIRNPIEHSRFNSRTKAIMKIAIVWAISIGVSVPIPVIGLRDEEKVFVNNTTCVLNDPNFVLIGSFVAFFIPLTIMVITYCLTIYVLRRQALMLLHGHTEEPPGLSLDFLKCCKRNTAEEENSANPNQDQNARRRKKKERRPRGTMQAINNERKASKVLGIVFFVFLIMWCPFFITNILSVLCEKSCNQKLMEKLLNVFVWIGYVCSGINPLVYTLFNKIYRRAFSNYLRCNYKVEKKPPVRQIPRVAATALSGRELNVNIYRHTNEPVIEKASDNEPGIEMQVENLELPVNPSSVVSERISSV

[5] = biological target: Beta-2 adrenergic receptor (Homo sapiens, UniProt P07550)
[6] = biological target: T3, Adenosine receptor A1 (Homo sapiens, UniProt P30542)
T3 sequence (P30542 whole entry): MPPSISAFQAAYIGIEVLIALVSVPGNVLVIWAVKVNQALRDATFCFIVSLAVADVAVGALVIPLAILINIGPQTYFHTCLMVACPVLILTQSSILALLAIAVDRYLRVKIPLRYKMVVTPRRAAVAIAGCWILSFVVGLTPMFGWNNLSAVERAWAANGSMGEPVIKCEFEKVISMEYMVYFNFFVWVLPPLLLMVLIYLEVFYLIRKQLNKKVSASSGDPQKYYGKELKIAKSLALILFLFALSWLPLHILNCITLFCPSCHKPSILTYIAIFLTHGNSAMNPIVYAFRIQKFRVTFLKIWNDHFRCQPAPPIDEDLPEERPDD

[7] = biological target: Sodium-dependent noradrenaline transporter (Homo sapiens, UniProt P23975)
[8] = biological target: T4, 5-hydroxytryptamine receptor 3A (Homo sapiens, UniProt P46098); assay type: functional
T4 sequence (P46098 whole entry): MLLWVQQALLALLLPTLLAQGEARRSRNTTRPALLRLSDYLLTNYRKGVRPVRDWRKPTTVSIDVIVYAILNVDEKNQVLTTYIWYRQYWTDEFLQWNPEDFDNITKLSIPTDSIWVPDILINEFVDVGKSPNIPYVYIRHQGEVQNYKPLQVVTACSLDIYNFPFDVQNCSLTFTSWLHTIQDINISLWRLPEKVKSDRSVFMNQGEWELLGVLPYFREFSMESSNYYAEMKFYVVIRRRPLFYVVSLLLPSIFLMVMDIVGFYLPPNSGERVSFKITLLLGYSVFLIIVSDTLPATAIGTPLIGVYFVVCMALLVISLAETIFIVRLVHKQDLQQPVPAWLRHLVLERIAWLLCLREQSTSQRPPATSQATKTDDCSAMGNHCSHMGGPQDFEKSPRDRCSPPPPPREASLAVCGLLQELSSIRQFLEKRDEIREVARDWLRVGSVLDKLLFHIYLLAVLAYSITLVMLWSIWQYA

[9] = biological target: 3',5'-cyclic-AMP phosphodiesterase 4D (Homo sapiens, UniProt Q08499); assay type: functional
[10] = biological target: D(3) dopamine receptor (Homo sapiens, UniProt P35462)
[11] = biological target: Histamine H3 receptor (Homo sapiens, UniProt Q9Y5N1)
[12] = biological target: T5, Mu-type opioid receptor (Homo sapiens, UniProt P35372)
[13] = biological target: T6, Muscarinic acetylcholine receptor M1 (Homo sapiens, UniProt P11229); assay type: functional
T6 sequence (P11229 whole entry): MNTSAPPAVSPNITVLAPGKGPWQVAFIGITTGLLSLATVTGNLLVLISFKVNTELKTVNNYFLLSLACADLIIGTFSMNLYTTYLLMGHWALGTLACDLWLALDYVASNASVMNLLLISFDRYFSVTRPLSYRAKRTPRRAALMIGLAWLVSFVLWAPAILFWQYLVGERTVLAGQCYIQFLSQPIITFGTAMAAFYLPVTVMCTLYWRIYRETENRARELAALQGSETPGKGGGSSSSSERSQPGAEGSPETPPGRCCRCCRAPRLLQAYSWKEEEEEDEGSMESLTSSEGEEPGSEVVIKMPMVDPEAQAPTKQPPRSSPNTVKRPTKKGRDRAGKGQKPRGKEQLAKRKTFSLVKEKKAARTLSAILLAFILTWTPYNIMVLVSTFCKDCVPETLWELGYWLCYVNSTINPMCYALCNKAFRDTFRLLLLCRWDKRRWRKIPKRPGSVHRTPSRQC

[14] = biological target: T5, Mu-type opioid receptor; assay: biochemical; assay type: functional
Note: assay procedure not described here.

Sequence of Cannabinoid receptor 1 (P21554 whole entry): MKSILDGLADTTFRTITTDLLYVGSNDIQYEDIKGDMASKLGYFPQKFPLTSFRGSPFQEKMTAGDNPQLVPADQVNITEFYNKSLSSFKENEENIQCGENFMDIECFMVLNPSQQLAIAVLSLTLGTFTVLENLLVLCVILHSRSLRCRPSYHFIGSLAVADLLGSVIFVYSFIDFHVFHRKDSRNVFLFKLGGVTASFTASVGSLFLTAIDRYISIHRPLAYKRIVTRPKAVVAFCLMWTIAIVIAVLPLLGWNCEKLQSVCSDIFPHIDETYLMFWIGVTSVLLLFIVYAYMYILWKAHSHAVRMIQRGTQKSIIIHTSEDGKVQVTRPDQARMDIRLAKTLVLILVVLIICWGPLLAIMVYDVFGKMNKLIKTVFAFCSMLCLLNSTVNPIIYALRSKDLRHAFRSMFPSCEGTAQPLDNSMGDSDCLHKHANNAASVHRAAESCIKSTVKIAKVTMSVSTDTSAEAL
Sequence of Sodium-dependent noradrenaline transporter (P23975 whole entry): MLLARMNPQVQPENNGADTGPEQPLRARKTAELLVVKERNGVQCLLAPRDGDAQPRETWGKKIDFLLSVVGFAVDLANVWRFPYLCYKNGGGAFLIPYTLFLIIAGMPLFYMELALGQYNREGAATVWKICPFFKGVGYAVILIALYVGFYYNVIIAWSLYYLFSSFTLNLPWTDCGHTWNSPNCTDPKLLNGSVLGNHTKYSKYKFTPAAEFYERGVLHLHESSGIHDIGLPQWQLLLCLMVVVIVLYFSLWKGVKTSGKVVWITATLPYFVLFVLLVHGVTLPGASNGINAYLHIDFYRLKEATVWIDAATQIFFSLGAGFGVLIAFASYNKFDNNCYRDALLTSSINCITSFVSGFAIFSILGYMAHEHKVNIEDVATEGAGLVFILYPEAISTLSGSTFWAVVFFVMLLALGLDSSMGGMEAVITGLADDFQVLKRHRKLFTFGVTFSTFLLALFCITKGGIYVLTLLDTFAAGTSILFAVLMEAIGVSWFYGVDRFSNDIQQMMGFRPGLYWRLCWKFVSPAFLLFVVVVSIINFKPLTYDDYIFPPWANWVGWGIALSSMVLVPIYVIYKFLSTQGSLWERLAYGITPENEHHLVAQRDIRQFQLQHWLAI
Sequence of Histamine H3 receptor (Q9Y5N1 whole entry): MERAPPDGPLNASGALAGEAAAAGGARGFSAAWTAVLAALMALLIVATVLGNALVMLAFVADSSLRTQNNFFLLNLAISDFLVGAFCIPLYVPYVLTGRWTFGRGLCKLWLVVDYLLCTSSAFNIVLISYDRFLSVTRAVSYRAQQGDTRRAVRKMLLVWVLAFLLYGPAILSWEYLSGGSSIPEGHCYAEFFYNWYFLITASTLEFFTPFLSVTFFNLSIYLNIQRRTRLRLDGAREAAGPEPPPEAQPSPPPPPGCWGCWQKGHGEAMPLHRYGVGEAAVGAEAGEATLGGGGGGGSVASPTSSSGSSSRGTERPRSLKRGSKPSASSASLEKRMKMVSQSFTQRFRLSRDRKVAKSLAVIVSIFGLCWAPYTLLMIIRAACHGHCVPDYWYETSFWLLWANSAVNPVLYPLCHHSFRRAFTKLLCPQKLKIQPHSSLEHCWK
T5 sequence (P35372 whole entry): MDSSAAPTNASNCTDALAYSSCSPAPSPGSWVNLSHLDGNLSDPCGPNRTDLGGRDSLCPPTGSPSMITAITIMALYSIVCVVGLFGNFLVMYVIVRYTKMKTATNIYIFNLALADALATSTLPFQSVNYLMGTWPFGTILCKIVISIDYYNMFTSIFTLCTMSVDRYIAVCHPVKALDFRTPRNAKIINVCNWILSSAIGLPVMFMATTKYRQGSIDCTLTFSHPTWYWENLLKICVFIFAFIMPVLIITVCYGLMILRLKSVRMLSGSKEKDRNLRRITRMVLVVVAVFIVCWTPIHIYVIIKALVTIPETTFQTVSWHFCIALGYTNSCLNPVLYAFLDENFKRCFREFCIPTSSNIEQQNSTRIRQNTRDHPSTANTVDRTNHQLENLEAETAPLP
Sequence of D(3) dopamine receptor (P35462 whole entry): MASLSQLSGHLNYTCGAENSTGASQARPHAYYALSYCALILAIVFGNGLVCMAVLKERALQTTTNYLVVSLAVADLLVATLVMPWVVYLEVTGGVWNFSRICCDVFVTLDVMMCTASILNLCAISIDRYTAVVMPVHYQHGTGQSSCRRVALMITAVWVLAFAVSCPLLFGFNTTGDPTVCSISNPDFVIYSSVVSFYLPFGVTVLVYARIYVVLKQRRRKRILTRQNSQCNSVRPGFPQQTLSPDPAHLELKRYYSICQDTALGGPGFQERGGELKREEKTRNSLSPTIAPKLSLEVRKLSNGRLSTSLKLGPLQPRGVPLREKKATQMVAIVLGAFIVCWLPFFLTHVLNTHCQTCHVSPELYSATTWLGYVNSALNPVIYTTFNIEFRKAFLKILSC
Sequence of Beta-2 adrenergic receptor (P07550 whole entry): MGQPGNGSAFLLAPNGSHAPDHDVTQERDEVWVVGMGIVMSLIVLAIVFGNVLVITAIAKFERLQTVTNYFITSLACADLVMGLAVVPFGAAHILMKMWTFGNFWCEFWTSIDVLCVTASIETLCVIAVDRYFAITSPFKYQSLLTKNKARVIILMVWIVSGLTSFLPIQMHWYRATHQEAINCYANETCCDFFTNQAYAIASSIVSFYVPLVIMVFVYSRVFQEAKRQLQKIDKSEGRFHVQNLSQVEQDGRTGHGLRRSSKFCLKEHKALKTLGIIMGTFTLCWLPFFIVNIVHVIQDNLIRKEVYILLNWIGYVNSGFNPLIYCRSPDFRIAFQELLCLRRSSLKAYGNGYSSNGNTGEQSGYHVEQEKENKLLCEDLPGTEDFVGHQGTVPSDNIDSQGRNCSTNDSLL
Sequence of Voltage-dependent L-type calcium channel subunit alpha-1C (P22002 whole entry): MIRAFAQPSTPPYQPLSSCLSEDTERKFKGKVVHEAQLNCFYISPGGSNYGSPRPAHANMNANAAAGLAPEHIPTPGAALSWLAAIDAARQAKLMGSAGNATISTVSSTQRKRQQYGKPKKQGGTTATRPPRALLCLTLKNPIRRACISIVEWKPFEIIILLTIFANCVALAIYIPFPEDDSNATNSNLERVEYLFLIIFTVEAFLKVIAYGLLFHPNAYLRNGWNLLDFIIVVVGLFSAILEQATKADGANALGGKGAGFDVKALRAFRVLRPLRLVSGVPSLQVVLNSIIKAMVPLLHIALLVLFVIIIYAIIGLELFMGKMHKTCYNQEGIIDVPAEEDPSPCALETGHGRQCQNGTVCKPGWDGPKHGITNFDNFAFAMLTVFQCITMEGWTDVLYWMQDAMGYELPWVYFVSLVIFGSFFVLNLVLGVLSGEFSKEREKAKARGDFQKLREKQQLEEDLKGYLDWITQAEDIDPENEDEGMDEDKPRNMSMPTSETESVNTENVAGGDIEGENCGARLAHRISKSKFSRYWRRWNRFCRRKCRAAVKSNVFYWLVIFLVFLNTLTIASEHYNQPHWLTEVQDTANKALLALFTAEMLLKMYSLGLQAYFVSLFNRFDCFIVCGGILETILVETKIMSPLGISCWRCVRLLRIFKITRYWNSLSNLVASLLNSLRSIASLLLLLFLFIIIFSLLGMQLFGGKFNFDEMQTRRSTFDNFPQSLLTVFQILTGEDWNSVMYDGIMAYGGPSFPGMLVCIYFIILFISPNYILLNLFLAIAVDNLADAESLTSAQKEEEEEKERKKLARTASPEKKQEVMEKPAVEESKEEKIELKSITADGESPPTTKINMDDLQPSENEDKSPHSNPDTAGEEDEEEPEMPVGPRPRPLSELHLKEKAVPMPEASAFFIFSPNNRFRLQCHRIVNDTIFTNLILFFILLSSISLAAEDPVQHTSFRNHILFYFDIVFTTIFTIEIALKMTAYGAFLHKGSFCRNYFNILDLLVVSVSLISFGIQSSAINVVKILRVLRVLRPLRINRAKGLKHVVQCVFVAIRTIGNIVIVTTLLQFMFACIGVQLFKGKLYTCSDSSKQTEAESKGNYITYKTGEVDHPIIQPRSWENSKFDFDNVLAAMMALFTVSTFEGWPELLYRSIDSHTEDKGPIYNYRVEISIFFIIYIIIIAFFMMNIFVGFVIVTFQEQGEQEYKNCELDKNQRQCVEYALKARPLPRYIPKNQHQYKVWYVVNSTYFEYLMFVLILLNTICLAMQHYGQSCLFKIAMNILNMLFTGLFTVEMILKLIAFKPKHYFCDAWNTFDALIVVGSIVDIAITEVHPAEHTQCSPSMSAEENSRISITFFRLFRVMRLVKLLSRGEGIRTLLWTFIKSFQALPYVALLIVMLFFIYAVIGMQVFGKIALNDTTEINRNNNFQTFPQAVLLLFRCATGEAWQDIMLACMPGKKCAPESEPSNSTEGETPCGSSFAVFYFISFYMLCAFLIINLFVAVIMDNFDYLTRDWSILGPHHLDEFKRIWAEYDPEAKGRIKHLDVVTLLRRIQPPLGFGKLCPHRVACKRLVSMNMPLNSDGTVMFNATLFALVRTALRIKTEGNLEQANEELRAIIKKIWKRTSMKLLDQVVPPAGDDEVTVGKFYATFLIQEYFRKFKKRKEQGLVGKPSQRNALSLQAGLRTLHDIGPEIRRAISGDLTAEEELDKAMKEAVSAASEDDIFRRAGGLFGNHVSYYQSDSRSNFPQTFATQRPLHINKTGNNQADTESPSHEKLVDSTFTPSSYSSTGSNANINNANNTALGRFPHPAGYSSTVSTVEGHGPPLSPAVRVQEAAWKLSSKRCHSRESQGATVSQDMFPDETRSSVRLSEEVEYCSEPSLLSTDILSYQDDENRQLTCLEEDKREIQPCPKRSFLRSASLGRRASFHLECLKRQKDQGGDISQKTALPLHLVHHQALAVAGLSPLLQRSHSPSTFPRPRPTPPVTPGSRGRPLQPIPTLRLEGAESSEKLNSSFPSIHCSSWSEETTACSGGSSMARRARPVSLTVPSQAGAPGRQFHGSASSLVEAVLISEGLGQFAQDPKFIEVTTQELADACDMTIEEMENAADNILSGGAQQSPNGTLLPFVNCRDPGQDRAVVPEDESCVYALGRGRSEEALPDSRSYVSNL

Compound: CC=CC(=O)N(CC)c1ccccc1C
- AC50 [1]: > 10 µM
- AC50 [2]: > 10 µM
- AC50 [3]: > 10 µM
- AC50 [4]: > 30 µM
- AC50 [5]: > 10 µM
- AC50 [6]: > 10 µM
- AC50 [7]: > 10 µM
- AC50 [8]: > 30 µM
- AC50 [9]: > 30 µM
- AC50 [10]: > 30 µM
- AC50 [11]: > 10 µM
- AC50 [12]: > 30 µM

Compound: CC(=O)O[C@H]1CC[C@@]2(C)C(=CC[C@@H]3[C@@H]2CC[C@]2(C)C(c4cccnc4)=CC[C@@H]32)C1 [ABIRATERONE ACETATE]
- AC50 [1]: > 30 µM
- AC50 [13]: > 30 µM
- AC50 [14]: > 30 µM
- AC50 [4]: > 30 µM
- AC50 [5]: > 10 µM
- AC50 [6]: > 30 µM
- AC50 [7]: > 30 µM
- AC50 [8]: > 30 µM
- AC50 [9]: > 30 µM
- AC50 [10]: > 30 µM
- AC50 [11]: > 30 µM
- AC50 [12]: > 30 µM

Compound: NCC[C@H](O)C(=O)N[C@@H]1C[C@H](N)[C@@H](O[C@H]2O[C@H](CN)[C@@H](O)[C@H](O)[C@H]2O)[C@H](O)[C@H]1O[C@H]1O[C@H](CO)[C@@H](O)[C@H](N)[C@H]1O [AMIKACIN]
- AC50 [1]: > 10 µM
- AC50 [2]: > 10 µM
- AC50 [3]: > 10 µM
- AC50 [4]: > 30 µM
- AC50 [5]: > 10 µM
- AC50 [6]: > 10 µM
- AC50 [7]: > 10 µM
- AC50 [8]: > 30 µM
- AC50 [9]: > 30 µM
- AC50 [10]: > 30 µM
- AC50 [12]: > 30 µM

Compound: NCC(=O)CCC(=O)O [AMINOLEVULINIC ACID]
- AC50 [1]: > 30 µM
- AC50 [13]: > 30 µM
- AC50 [14]: > 30 µM
- AC50 [4]: > 30 µM
- AC50 [6]: > 30 µM
- AC50 [8]: > 30 µM
- AC50 [9]: > 30 µM
- AC50 [10]: > 30 µM
- AC50 [11]: > 30 µM
- AC50 [12]: > 30 µM

Compound: COc1ccc2c3c1O[C@H]1[C@@H](O)C=C[C@H]4[C@@H](C2)N(C)CC[C@@]341 [CODEINE]
- AC50 [1]: > 30 µM
- AC50 [2]: > 10 µM
- AC50 [13]: > 10 µM
- AC50 [3]: > 10 µM
- AC50 [4]: > 30 µM
- AC50 [5]: > 10 µM
- AC50 [6]: > 30 µM
- AC50 [7]: > 30 µM
- AC50 [8]: > 10 µM
- AC50 [9]: 7.2 µM
- AC50 [10]: > 10 µM
- AC50 [11]: > 10 µM

Compound: C#C[C@]1(O)CC[C@H]2[C@@H]3CCC4=Cc5oncc5C[C@]4(C)[C@H]3CC[C@@]21C [DANAZOL]
- AC50 [1]: > 10 µM
- AC50 [2]: > 10 µM
- AC50 [3]: > 10 µM
- AC50 [4]: > 30 µM
- AC50 [5]: > 10 µM
- AC50 [6]: > 30 µM
- AC50 [10]: > 30 µM
- AC50 [11]: > 10 µM
- AC50 [12]: > 30 µM

Compound: CC(C)Cn1cnc2c(N)nc3ccccc3c21 [IMIQUIMOD]
- AC50 [1]: > 10 µM
- AC50 [2]: > 10 µM
- AC50 [3]: > 10 µM
- AC50 [4]: > 30 µM
- AC50 [5]: > 10 µM
- AC50 [6]: > 10 µM
- AC50 [7]: > 30 µM
- AC50 [8]: > 30 µM
- AC50 [9]: 4.03 µM
- AC50 [10]: > 30 µM
- AC50 [11]: > 10 µM
- AC50 [12]: > 30 µM

Compound: CC(CC(c1ccccc1)c1ccccc1)NC(C)(C)C (centres undefined) [TERODILINE]
- AC50 [1]: > 30 µM
- AC50 [2]: > 30 µM
- AC50 [13]: 1.4 µM
- AC50 [14]: > 30 µM
- AC50 [4]: > 30 µM
- AC50 [5]: > 30 µM
- AC50 [6]: > 30 µM
- AC50 [7]: > 30 µM
- AC50 [8]: > 30 µM
- AC50 [9]: > 30 µM
- AC50 [10]: > 30 µM
- AC50 [11]: > 30 µM

Compound: COc1cc2c(N)nc(N3CCN(C(=O)OCC(C)(C)O)CC3)nc2c(OC)c1OC [TRIMAZOSIN]
- AC50 [1]: > 30 µM
- AC50 [2]: > 30 µM
- AC50 [13]: > 30 µM
- AC50 [14]: > 30 µM
- AC50 [4]: > 30 µM
- AC50 [5]: > 30 µM
- AC50 [6]: > 30 µM
- AC50 [7]: > 30 µM
- AC50 [8]: > 30 µM
- AC50 [9]: > 30 µM
- AC50 [10]: > 30 µM
- AC50 [11]: > 30 µM

Compound: C=CCN1CCCC1CNC(=O)c1cc(S(N)(=O)=O)cc(OC)c1OC (centres undefined) [VERALIPRIDE]
- AC50 [1]: > 30 µM
- AC50 [2]: > 30 µM
- AC50 [13]: > 30 µM
- AC50 [14]: > 30 µM
- AC50 [4]: > 30 µM
- AC50 [5]: > 30 µM
- AC50 [6]: > 30 µM
- AC50 [7]: > 30 µM
- AC50 [8]: > 30 µM
- AC50 [9]: > 30 µM
- AC50 [10]: 0.003 µM
- AC50 [11]: 23 µM
